In data set [1] the test system is bladder instability and bladder capacity in SCI rats. The following applies: SCI rats (Cheng et al., 1995); cited from earlier work.
The test system of data set [2] is reduction in bladder capacity following continuous infusion of dilute acetic acid. Description: Dilute acetic acid model, acute anesthetized in vivo model (bladder capacity by cystometry). The following applies: rat, isobologram construction, i.v.; both drugs alone and low-dose combinations. The text has this:
Urethane anesthetized (1.2 g/kg) normal female rats were utilized in this study.
Animal Preparation: Female rats (250-300 g body weight) were anesthetized with urethane (1.2 g/kg) and a saline-filled catheter (PE-50) was inserted into the jugular vein for intravenous drug administration. […] The abdominal cavity was moistened with saline and closed by covering with a thin plastic sheet in order to maintain access to the bladder for emptying purposes. Fine silver or stainless steel wire electrodes were inserted into the external urethral sphincter (EUS) percutaneously for electromyography (EMG).
Following 30 minutes of AA infusion, 3 vehicle injections were made at 20 minute intervals to determine vehicle effects, if any.
P<0.050 was considered significant.

A short description of data set [3]: in vivo. The following applies: female, rat, iv; for AUC(0-t): AUC0-t (Mean); for Cmax: Cmax (Mean); for Vd: Vz (Mean); for half-life: t1/2 (Mean).
Data set [4] relates to reduction in bladder capacity following continuous infusion of dilute acetic acid. As to the kind of experiment: Dilute acetic acid model in cats (bladder capacity, voiding efficiency). The following applies: cat, gabapentin 30 mg/kg dose alone. It is filed as in vivo.
Experimental: The objective of this study was to determine the ability of an α2δ subunit calcium channel modulator in combination with a smooth muscle modulator to reverse the reduction in bladder capacity seen following continuous infusion of dilute acetic acid in a cat model, a commonly used model of overactive bladder.
Alpha-chloralose anesthetized (50-100 mg/kg) normal female cats (2.5-3.5 kg; Harlan) were utilized in this study.
Animals were dosed by volume of injection=body weight in kg.
Female cats (2.5-3.5 kg; Harlan) had their food removed the night before the experiment. The following morning, the cat was anesthetized with isoflurane and prepped for surgery using aseptic technique. Polyethylene catheters were surgically placed to permit the measurement of bladder pressure, urethral pressure, arterial pressure, respiratory rate as well as for the delivery of drugs. Fine wire electrodes were implanted alongside the external urethral anal sphincter. Following surgery, the cats were slowly switched from the gas anesthetic isoflurane (2-3.5%) to alpha-chloralose (50-100 mg/kg). During control cystometry, saline was slowly infused into the bladder (0.5-1.0 m/min) for 1 hour. […] After assessing the cystometric variables under these baseline conditions, the effects of test drug(s) on micturition were determined via a 3-5 point dose response protocols. […]
The conditions of data set [5]: preclinical and clinical studies, in contrast to gabapentin itself, cited from earlier work.
Data set [6] concerns α2δ subunit of calcium channels. Particulars: Bryans et al. (1999); cited from earlier work.
[7] abbreviates: female, rat, in vivo, iv, 3 mg/kg.
The mark [8] stands for this setting: 100 mg/kg, gabapentin in rat plasma after 100 mg/kg gabapentin i.v., alone (Gab) or with 3 mg/kg oxybutynin (Com), group Mean, outliers excluded.
Where [9] appears, read: 100 mg/kg, gabapentin in rat plasma after 100 mg/kg gabapentin i.v., alone (Gab) or with 3 mg/kg oxybutynin (Com), group Mean.

SMILES strings stand for the structures. Values joined by “and” are separate entries in the source; they are usually repeats but may differ in a detail not shown here. Identical values can stand only once.

As to `COc1cc(CNC(=O)CCCC/C=C/C(C)C)ccc1O` [capsaicin], in data set [1], the “bladder capacity to voiding” value is “not effect bladder capacity to voiding” and the bladder instability entry is reported as “reduce bladder instability”.

Regarding `CCN(CC)CC#CCOC(=O)C(O)(c1ccccc1)C1CCCCC1` (stereo not drawn) [oxybutynin, 4-diethylaminio-2-butynyl phenylcyclohexyglycolate], in data set [2], the “common maximal effect / target value, return to % of saline control bladder capacity (individual responses)” value was 31 % of saline control and the “common maximal effect, return to % of saline control bladder capacity (group mean data)” value is on record as 43 % of saline control. Besides, under setting [7], the “AUC0-t (Mean)” value came out at 144 ng·min/mL, the “AUC0-∞ (Mean)” value was 289 ng·min/mL and the “Vz (Mean)” value worked out at 1310.999 L/kg. Besides, in data set [3] (3 mg/kg), the Tmax is 15 min, the area under the curve AUC(0-t) was 0.335 µg·h/mL, the concentration peaked (Cmax) at 329 ng/mL and the Vd was found to be 10.1 L/kg. In data set [3] (3 mg/kg), this compound returned a half-life of 54 min. This compound also had an AUC(0-inf) in data set [3] (3 mg/kg, AUC0-∞ (Mean)) of 0.41 µg·h/mL. The compound further gave a clearance in data set [3] (3 mg/kg, CL (Mean)) of 134 mL/min/kg.

Turning to `NCC1(CC(=O)O)CCCCC1` [gabapentin, 1-(aminomethyl) cyclohexaneacetic acid], in data set [2], the “common maximal effect / target value, return to % of saline control bladder capacity (individual responses)” value is 31 % of saline control and the “common maximal effect, return to % of saline control bladder capacity (group mean data)” value is on record as 43 % of saline control. For the same compound, the “effect on bladder capacity” value in data set [4] was “no significant effect”. For the setting “gabapentin in rat plasma after 100 mg/kg gabapentin i.v., alone (Gab) or with 3 mg/kg oxybutynin (Com), individual animals, listed as Gab”, the “AUC0-∞” value was 1.37e+07 ng·min/mL and 2.19e+07 ng·min/mL and 1.44e+07 ng·min/mL. In data set [3] (setting [8]), this compound showed an AUC(0-t) of 158 µg·h/mL and a Cmax of 98600 ng/mL. Also, the AUC(0-inf) in data set [3] (100 mg/kg, AUC0-∞ (Mean), gabapentin in rat plasma after 100 mg/kg gabapentin i.v., alone (Gab) or with 3 mg/kg oxybutynin (Com), group Mean) is 270 µg·h/mL. Also, in data set [3] (100 mg/kg, AUC0-∞, gabapentin in rat plasma after 100 mg/kg gabapentin i.v., alone (Gab) or with 3 mg/kg oxybutynin (Com), individual animals), the AUC(0-inf) is 325 µg·h/mL. The clearance in data set [3] (100 mg/kg, CL (Mean), gabapentin in rat plasma after 100 mg/kg gabapentin i.v., alone (Gab) or with 3 mg/kg oxybutynin (Com), group Mean) worked out at 6.52 mL/min/kg. The compound also displayed a clearance in data set [3] (100 mg/kg, CL, gabapentin in rat plasma after 100 mg/kg gabapentin i.v., alone (Gab) or with 3 mg/kg oxybutynin (Com), individual animals) of 5.12 mL/min/kg. Further, the Tmax in data set [3] (100 mg/kg, Tmax, gabapentin in rat plasma after 100 mg/kg gabapentin i.v., alone (Gab) or with 3 mg/kg oxybutynin (Com), individual animals) is 15 min. In data set [3] (setting [9]), this compound registered a distribution volume (Vd) of 1.24 L/kg and a half-life of 128 min.

Turning to `CC(OC(=O)NCC1(CC(=O)O)CCCCC1)OC(=O)C(C)C` (stereo not drawn) [XP13512], in data set [5] (oral), the “blood levels of gabapentin across a broad range of oral doses” value is on record as “dose proportional blood levels of gabapentin”. Moreover, the “absorption from the large intestine” value in data set [5] is listed as “absorbed efficiently from the large intestine”.

For the compound `CC(C)C[C@H](CN)CC(=O)O` [Pregabalin, (S)-(3-aminomethyl)-5-methylhexanoic acid], the “binding affinity for the α2δ subunit of calcium channels compared with gabapentin” value in data set [6] is reported as “even higher binding affinity”.

What is called Tmax is the time at which the peak concentration occurs. As a reminder, the AUC(0-t) is the area under the concentration-time curve up to a stated or last time point. A low value points to low exposure. What is called AUC(0-inf) is total exposure, with the tail of the curve extrapolated. High values mean more exposure, low ones less exposure. The term clearance denotes the rate of elimination divided by the concentration. Read a low clearance as inefficient removal. By Cmax is commonly meant the highest concentration seen after dosing. By Vd is commonly meant a proportionality between amount in the body and measured concentration, not a real space. High values mean extensive tissue distribution, low ones confinement near the circulation. A word on the half-life: it is the time in which the quantity being followed falls by half.

(Values after patent US20060247311A1, “Methods for treating lower urinary tract disorders using alpha2delta subunit calcium channel modulators with smooth muscle modulators” (priority 2003, published 2006).)
